Patent publication US20260048062A1, “FUSED AMINO PYRIMIDINE COMPOUNDS FOR TREATMENT OF PSYCHOSIS AND PSYCHOTIC DISORDERS” (Ovid Therapeutics Inc., priority 2024, published 2026)

Experiments:
[1] = biological target: T1, KCC4 (Homo sapiens, UniProt Q9Y666); test: Tl+ flux assay, HEK-293 cells expressing KCC4; type: cell-based; conditions: read-out: concentration at which effects on KCC4 were seen
T1 construct: expressed in transfected cells; host or cells: HEK-293
T1 sequence (Q9Y666 1-1083): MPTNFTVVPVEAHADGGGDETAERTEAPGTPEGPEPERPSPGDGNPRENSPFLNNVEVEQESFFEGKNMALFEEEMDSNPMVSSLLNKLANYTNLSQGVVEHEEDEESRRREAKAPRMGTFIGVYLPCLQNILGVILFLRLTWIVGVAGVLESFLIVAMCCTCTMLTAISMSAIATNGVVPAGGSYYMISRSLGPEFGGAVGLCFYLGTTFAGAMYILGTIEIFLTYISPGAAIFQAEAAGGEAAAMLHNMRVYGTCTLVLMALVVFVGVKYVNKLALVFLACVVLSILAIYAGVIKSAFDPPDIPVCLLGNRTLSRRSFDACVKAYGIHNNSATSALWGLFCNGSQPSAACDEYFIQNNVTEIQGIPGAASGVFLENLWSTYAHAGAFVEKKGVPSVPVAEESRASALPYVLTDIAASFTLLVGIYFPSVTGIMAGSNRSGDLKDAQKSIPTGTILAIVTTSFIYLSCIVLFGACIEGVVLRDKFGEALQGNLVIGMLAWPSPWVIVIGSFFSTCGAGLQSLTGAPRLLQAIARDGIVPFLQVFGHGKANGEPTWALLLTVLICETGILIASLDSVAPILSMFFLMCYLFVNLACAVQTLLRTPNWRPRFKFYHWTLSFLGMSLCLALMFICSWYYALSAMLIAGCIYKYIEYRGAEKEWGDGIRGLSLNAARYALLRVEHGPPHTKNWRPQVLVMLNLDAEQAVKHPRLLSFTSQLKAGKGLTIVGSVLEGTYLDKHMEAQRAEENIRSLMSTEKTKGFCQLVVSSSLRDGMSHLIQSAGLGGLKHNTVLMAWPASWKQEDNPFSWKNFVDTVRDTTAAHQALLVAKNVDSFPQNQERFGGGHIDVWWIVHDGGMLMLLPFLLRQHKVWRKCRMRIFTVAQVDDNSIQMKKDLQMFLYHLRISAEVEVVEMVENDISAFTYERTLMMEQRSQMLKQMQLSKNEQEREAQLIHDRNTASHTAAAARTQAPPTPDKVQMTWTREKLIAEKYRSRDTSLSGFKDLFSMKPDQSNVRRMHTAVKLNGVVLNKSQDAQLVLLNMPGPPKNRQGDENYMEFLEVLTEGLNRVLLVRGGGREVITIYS
Method: FLIPR TI Flux assay. HEK-293 cells were washed with HBSS, and then incubated with loading buffer containing TI sensitive fluorescent dye (https://www.moleculardevices.com), 20 μM bumetanide 20 μM ouabain and 2.5 mM probenecid for 1 h at room temperature (RT) under control conditions or with drugs in the dark using a FlexStation 3 microplate reader (Molecular Devices) and imaged […] for 30 min. Stimulus buffer was added containing 5 mM K^+/0.5 mM Tl^+ and cells were imaged every 1.5 over a 190 second time course The initial rate Tl^+ uptake (Relative Fluorescence Units (RFU) per second) was determined following addition of the stimulus buffer as outlined previously (Conway et al., 2017, supra) (Lee et al., 2022, supra).
Compared to KCC2, effects on KCC3, KCC4, and NKCC1 were only seen at concentrations more than 35-fold that of KCC2 (>100 μM) (FIG. 1G).

[2] = test system: 18-20 Div hippocampal neurons; test: Gramicidin perforated patch clamp, EGABA in hippocampal neurons; type: cell-based, Sprague Dawley
Method: Neuronal Cultures. Hippocampal neurons were prepared from Sprague Dawley E18 embryos and plated at 450,000 per dish and maintained at 37° C. in a humidified 5% CO2 incubator for 10-25 days before experimentation (Lee et al., Nat. Neurosci. 14, 736-743 (2011)).
At this developmental stage, GABAAR receptor activation leads to hyperpolarization, a phenomenon critically dependent upon KCC2 (Kontou et al., J Biol Chem, 100364 (2021)).
Neuronal Patch clamp assays. Neuronal cell culture recordings were performed in bath saline at 34° C. For gramicidin perforated-patch experiments, pipettes contained (in mM): 140 KCl and 10 HEPES, pH 7.4 KOH. […] Bath saline contained the following (in mM): 140 NaCl, 2.5 KCl, 2.5 CaCl2, 2.5 MgCl2, 10 HEPES, and 11 glucose, pH 7.4 NaOH (Kontou et al., 2021, supra). All compound solutions were applied to cells using a three-barreled 700 μm pipe positioned just above the cell (Warner Instruments). […] 10 mV voltage-ramp protocols over 1-s periods were used to determine the reversal potentials of the leak-subtracted muscimol-activated GABAAR currents. All voltages from whole-cell experiments were corrected offline using a calculated liquid junction potential value (13.6 mV) in Clampex (Molecular Devices). For gramicidin perforated-patch experiments, intracellular Cl^− values were back-calculated using measured EGABA values and the Nernst equation: […]
Measurements were performed in the presence of bumetanide […] and tetrodotoxin (TTX; 300 nM) to limit the contributions of NKCC1 and activity dependent shifts in chloride levels, respectively (Lee et al., 2011, supra).

[3] = PK study, brain and plasma levels by LC-MS/MS; type: in vivo; conditions: mice

SMILES: C[C@@H]1CN(c2nc3c(c(Nc4ccc(C5CCCCC5)cc4)n2)COC3)CCO1 [Compound A, (R)—N-(4-cyclohexylphenyl)-2-(2-methylmorpholino)-5,7-dihydrofuro[3,4-d]pyrimidin-4-amine]
- EC50 [1]: > 100 µM
- EGABA at 0 min ([2]; 300 nM group, before treatment, bumetanide and TTX present): −75±3.1 mV
- EGABA at 15 min ([2]; 300 nM, 15 min, bumetanide and TTX present): −85.1±4.2 mV
- reduction in Cl− ([2]; 300 nM, 15 min, from EGABA by Nernst equation): 2.2 ± 0.6 mM
- time at which accumulation in the brain was detected ([3]; 50 mg/kg SC): 30 min
- time by which accumulation in the brain was evident ([3]; single 25 mg/kg IV bolus): ≤ 30 min
